From patent publication US7994190B2, “Modulators of glucocorticoid receptor, AP-1, and/or NF-κB activity and use thereof” (Bristol-Myers Squibb Company, priority 2006, dated 2011) come the findings set out here.

The target of assay [1] is T1, human glucocorticoid receptor (Homo sapiens, UniProt P04150).
T1 construct: purified human recombinant full-length glucocorticoid receptor (2 nM); purchased Invitrogen Part #2893
T1 sequence (P04150 1-777): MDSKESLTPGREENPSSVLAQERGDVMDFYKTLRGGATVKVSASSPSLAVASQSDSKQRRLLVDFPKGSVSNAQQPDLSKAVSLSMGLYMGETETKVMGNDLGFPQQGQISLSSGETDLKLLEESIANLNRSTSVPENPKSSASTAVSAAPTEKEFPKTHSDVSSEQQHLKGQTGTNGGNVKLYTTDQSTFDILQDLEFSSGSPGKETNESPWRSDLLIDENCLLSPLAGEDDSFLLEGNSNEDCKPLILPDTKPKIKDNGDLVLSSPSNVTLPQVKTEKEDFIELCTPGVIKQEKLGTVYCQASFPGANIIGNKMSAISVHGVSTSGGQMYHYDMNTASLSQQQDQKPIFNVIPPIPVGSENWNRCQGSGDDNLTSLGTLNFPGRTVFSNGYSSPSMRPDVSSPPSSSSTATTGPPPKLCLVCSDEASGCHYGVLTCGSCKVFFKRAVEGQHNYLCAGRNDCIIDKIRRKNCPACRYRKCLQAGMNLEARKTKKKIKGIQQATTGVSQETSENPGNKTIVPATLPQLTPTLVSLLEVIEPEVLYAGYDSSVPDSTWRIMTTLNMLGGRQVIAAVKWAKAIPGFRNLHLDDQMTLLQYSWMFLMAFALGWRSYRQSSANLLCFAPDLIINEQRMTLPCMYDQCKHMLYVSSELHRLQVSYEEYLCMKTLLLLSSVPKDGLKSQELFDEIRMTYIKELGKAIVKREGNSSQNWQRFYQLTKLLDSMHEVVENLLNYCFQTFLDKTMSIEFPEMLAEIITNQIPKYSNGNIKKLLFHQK
Description: Glucocorticoid Receptor Binding Assay (fluorescence polarization competitor kit). The note with it: purified human recombinant full-length GR 2 nM, 1 nM Fluormone GS Red, 2 h room temperature. As for the experimental part:
Glucocorticoid Receptor Binding Assay
In order to assess the affinity of test compounds for the human glucocorticoid receptor, a commercially available kit was used (Glucocorticoid Receptor Competitor Assay Kit, Invitrogen Part #2893). Briefly, purified human recombinant full-length glucocorticoid receptor (2 nM) was mixed with fluorescently labeled glucocorticoid (1 nM Fluormone GS Red) in the presence or absence of test compound. After two hour incubation at room temperature in the dark, the fluorescence polarization (FP) of the samples was measured. […] Test compounds were analyzed in the concentration range from 8.5E-05 μM to 5 μM.
(Polarisation of emitted light reports the rotation of a fluorescent probe.)

A further assay deals with AP-1. Description: Cellular Transrepressional Assay (AP-1 luciferase reporter in A549 cells). The class given is cell-based. The following applies: A549 cell stably transfected with pAP-1-Luc, 10 ng/ml PMA, 7 hours; for AP-1 Max % inh (Cellular Transrepression Assay): maximum inhibition; for EC50: read-out: AP-1 EC50, nM (Cellular Transrepression Assay). The method, then:
Cellular Transrepressional Assay
To measure the ability of test molecules to inhibit AP-1 induced transcriptional activity, an A549 cell was utilized which was stably transfected with a plasmid containing 7×AP-1 DNA binding sites (pAP-1-Luc plasmid, Stratagene Co. La Jolla, Calif.) followed by the gene for luciferase. Cells were activated with 10 ng/ml of […] (PMA) plus or minus test molecules for 7 hours. After 7 hours a luciferase reagent was added to measure luciferase enzymatic activity in the cell. After a 10 minute incubation of luciferase reagent with cells, luminescence was measured in a TopCount luminescence counter. Repression of AP-1 activity was calculated as the percentage decrease in the signal induced by PMA alone. Test molecules were analyzed in the concentration range from 0.1 nM to 40 μM. EC50s were determined by using standard curve fitting methods such as Excel fit (Microsoft Co.).
In general terms: Reporter assays use an easily measured gene product as a stand-in for the process of interest.

Usually Ki stands for the equilibrium dissociation constant of an inhibitor or competing ligand from its target. As to `CC(C)(CNC(=O)C(F)(F)F)C(c1ccccc1)c1ccn2c(-c3ccccc3)ncc2c1` (stereo not shown) [Example 2, N-(2,2-Dimethyl-3-phenyl-3-(3-phenylH-imidazo[1,5-a]pyridin-7-yl)propyl)-2,2,2-trifluoroacetamide], in assay [1], the inhibitory constant (Ki) was 16.5 nM.

With `CC(C)(C(=O)Nc1nccs1)C(c1ccccc1)c1ccc2cncn2c1` (stereo not shown) [Example 4, 3-(H-Imidazo[1,5-a]pyridin-6-yl)-2,2-dimethyl-3-phenyl-N-(thiazol-2-yl)propanamide], the Ki in assay [1] was found to be 13 nM.

With `CC(C)(C(=O)NC1CC1)C(c1ccccc1)c1ccn2c(-c3ccccc3)ncc2c1` (stereo not shown) [Example 10], in assay [1], the inhibition constant (Ki) stood at 7.3 nM.

Regarding `CC(C)(C(=O)Nc1nccs1)C(c1ccccc1)c1ccc2nncn2c1` (stereo not shown) [Example 8, 3-([1,2,4]-Triazolo[4,3-a]pyridin-6-yl)-2,2-dimethyl-3-phenyl-N-(thiazol-2-yl)propanamide], the Ki in assay [1] stood at 169 nM.

Broadly, the EC50 is the concentration needed to bring the measured effect to its halfway point. As for `CC(C)(C(=O)Nc1nncs1)C(c1ccccc1)c1ccc2c(-c3ccc(F)cc3)ncn2c1` (stereo not shown) [Example 14], in the assay with AP-1, the “AP-1 Max % inh (Cellular Transrepression Assay)” value (shortened to “AP-1 Max % inh”) is reported as 55.80% and the EC50 stood at 43.6 nM. As for `Cc1nnc2ccc(C(c3ccccc3)C(C)(C)C(=O)Nc3nccs3)cn12` (stereo not shown) [Example 25], in assay [1], the inhibition constant (Ki) was 2360 nM.

Turning to `Cc1nnc2ccc(C(c3ccccc3)C(C)(C)C(=O)Nc3nncs3)cn12` (stereo not shown) [Example 26], in assay [1], the Ki worked out at 5450 nM. On to `CC(C)(C(=O)Nc1nccs1)C(c1ccccc1)c1ccc2c(-c3ccc(F)cc3)ncn2c1` (stereo not shown) [Example 5, 3-(1-(4-Fluorophenyl)H-imidazo[1,5-a]pyridin-6-yl)-2,2-dimethyl-3-phenyl-N-(thiazol-2-yl)propanamide], for which, in the assay with AP-1, the “AP-1 Max % inh” value came out at 71.08% and the EC50 stood at 34.1 nM. Regarding `CC(C)(C(=O)Nc1nccs1)C(c1ccccc1)c1ccc2c(Br)ncn2c1` (stereo not shown) [Example 6, 3-(1-BromoH-imidazo[1,5-a]pyridin-6-yl)-2,2-dimethyl-3-phenyl-N-(thiazol-2-yl)propanamide], in assay [1], the inhibitory constant (Ki) stood at 30.2 nM. As for `CC(C)(C(=O)Nc1nncs1)C(c1ccccc1)c1ccc2c(-c3cccc(C#N)c3)ncn2c1` (stereo not shown) [Example 15], the Ki in assay [1] was determined as 22.6 nM. Consider `CC(C)(C(=O)Nc1nccs1)C(c1ccccc1)c1ccc2c(-c3ccc(F)cc3F)ncn2c1` (stereo not shown) [Example 18], for which, in the assay on AP-1, the “AP-1 Max % inh” value is given as 55.81% and the EC50 amounted to 13 nM. With `CC(C)(C(=O)Nc1nccs1)C(c1ccccc1)c1ccn2cncc2c1` (stereo not shown) [Example 12], the inhibition constant (Ki) in assay [1] was 17.7 nM. Still for that read-out and setting: with `CC(C)(C(=O)Nc1nccs1)C(c1ccccc1)c1ccc2c(-c3cccc(C#N)c3)ncn2c1` (stereo not shown) [Example 7, 3-(1-(3-Cyanophenyl)H-imidazo[1,5-a]pyridin-6-yl)-2,2-dimethyl-3-phenyl-N-(thiazol-2-yl)propanamide] the figure was 17 nM. In the case of `CC(C)(C(=O)Nc1nncs1)C(c1ccccc1)c1ccc2c(-c3ccc(F)c(Cl)c3)ncn2c1` (stereo not shown) [Example 21], the Ki in assay [1] turned out to be 46.6 nM. On to `CC(C)(C(=O)Nc1nncs1)C(c1ccccc1)c1ccc2c(-c3ccc(F)cc3F)ncn2c1` (stereo not shown) [Example 19], for which, in the assay with AP-1, the “AP-1 Max % inh” value is recorded as 45.65% and the concentration for a half-maximal effect (EC50) was determined as 16 nM. In the case of `CC(C)(C(=O)Nc1nncs1)C(c1ccccc1)c1ccc2c(-c3cccc(CO)c3)ncn2c1` (stereo not shown) [Example 22], the inhibition constant Ki in assay [1] was found to be 12.2 nM.

For `CC(C)(C(=O)Nc1nncs1)C(c1ccccc1)c1ccn2c(-c3ccccc3)ncc2c1` (stereo not shown) [Example 1, 2,2-Dimethyl-3-phenyl-3-(3-phenylH-imidazo[1,5-a]pyridin-7-yl)-N-(1,3,4-thiadiazol-2-yl)propanamide], in the assay on AP-1, the “AP-1 Max % inh” value is listed as 63.58% and the EC50 worked out at 112 nM.

`CC(C)(C(=O)Nc1nncs1)C(c1ccccc1)c1ccn2cncc2c1` (stereo not shown) [Example 11]: in assay [1], the inhibition constant Ki stood at 27.1 nM.

As for `CC(C)(C(=O)Nc1nccs1)C(c1ccccc1)c1ccc2c(-c3ccc(C#N)cc3)ncn2c1` (stereo not shown) [Example 16], the inhibition constant Ki in assay [1] was 26.2 nM. In the case of `CC(C)(C(=O)Nc1nccs1)C(c1ccccc1)c1ccn2c(-c3ccccc3)ncc2c1` (stereo not shown) [Example 9], in the assay with AP-1, the “AP-1 Max % inh” value was 67.35% and the EC50 amounted to 10.1 nM. Consider `CC(C)(C(=O)Nc1nncs1)C(c1ccccc1)c1ccc2nncn2c1` (stereo not shown) [Example 24], for which the Ki in assay [1] stood at 327 nM. In the case of `CCOC(=O)NCC(C)(C)C(c1ccccc1)c1ccn2c(-c3ccccc3)ncc2c1` (stereo not shown) [Example 3, Ethyl 2,2-dimethyl-3-phenyl-3-(3-phenylH-imidazo[1,5-a]pyridin-7-yl)propylcarbamate], the inhibitory constant (Ki) in assay [1] came out at 27.4 nM. On the same count and under the same terms, with `Cc1cscc1-c1ncn2cc(C(c3ccccc3)C(C)(C)C(=O)Nc3nncs3)ccc12` (stereo not shown) [Example 23] the figure was 36 nM; with `CC(C)(C(=O)Nc1nccs1)C(c1ccccc1)c1ccc2c(-c3ccc(F)c(Cl)c3)ncn2c1` (stereo not shown) [Example 20], 65.9 nM; with `CC(C)(C(=O)Nc1nncs1)C(c1ccccc1)c1ccc2cncn2c1` (stereo not shown) [Example 13], 19.5 nM.
